Measured values as given in PubChem BioAssay AID1996.
≈ marks a conversion by molar mass, not a printed value.

conditions: buffer; pH 7.4; 200.0 µM

Row | Compound | solubility kinetic [mg/mL]
1 | CS(=O)(=O)N1CCN=C1SCc1ccc(F)cc1 | > 0.0433
2 | COC(=O)c1ccc(C(=O)Nc2ccc(C(C)C)cc2N)cc1 | 0.0025 (≈ 8 µM)
3 | COc1cccc(-n2cnc3sc(C)cc3c2=O)c1 | 0.0403 (≈ 148 µM)
4 | N/C(CC1CC1(Cl)Cl)=N\OC(=O)c1ccccc1 (stereo not given) | > 0.0431
5 | Cc1ccn2cc(CCNC(=O)C3CC=CCC3C(=O)O)nc2c1 (stereo not given) | 0.0457 (≈ 140 µM)
6 | CCOC(=O)c1sc(NC(=O)CCN2C(=O)C3CCCCC3C2=O)cc1C (stereo not given) | 0.015 (≈ 38.2 µM)
7 | CNC(=O)OCCSCCS(=O)(=O)c1ccc(Cl)cc1 | 0.0166 (≈ 49.1 µM)
8 | CCCCN1C(C)=CC(=C2C(=O)c3ccccc3C2=O)C=C1C | < 0.0007
9 | COc1ccc(CCNC(=O)c2cc(=O)c3cc(C)ccc3o2)cc1 | 0.0066 (≈ 19.6 µM)
10 | CC(C)Cn1cc(Cl)c(=O)n(CC(C)C)c1=O | > 0.0388
11 | O=C(O)COCC(=O)Nc1ccc2c(c1)oc1ccccc12 | > 0.0449
12 | NC(=O)NC(=O)COC(=O)/C=C/c1cccc(Br)c1 | 0.0004 (≈ 1.22 µM)
13 | CC(=O)c1ccc(N2CCN(c3ncccn3)CC2)cc1 | 0.0077 (≈ 27.3 µM)
14 | CC(C)CN=Cc1c(O)c([N+](=O)[O-])cc2oc3c(c12)CCCC3 | 0.0065 (≈ 20.5 µM)
15 | O=C(c1ccccc1SCc1ccccc1)N1CCOCC1 | 0.0459 (≈ 146 µM)
16 | COc1ccc(Cc2c([O-])[nH]c(=O)[nH]c2=O)c(OC)c1.[NH4+] | 0.0431
17 | Cc1ccc(-c2csc(NC(=O)c3ccccc3Cl)c2C(=O)O)cc1 | > 0.0558
18 | O=C(/C=C/c1ccc(O)c([N+](=O)[O-])c1)c1ccc2ccccc2c1 | 0.0018 (≈ 5.64 µM)
19 | COc1ccc(OC)c(CNC(=O)C2CCC(=O)N2C(C)C)c1 (stereo not given) | > 0.0481
20 | COc1ccc(CCNC(=O)C(=O)NCc2ccccn2)cc1 | > 0.047
21 | Cc1cccc2sc(NC(=O)CN3C(=O)NC4(CCCC4)C3=O)nc12 | 0.0466 (≈ 130 µM)
22 | CC(O)Cn1c(N2CCCC2)nc2c1c(=O)[nH]c(=O)n2C (stereo not given) | 0.0414 (≈ 141 µM)
23 | CCN1C(=O)CC(c2ccc(OC(C)C)cc2)C1=O (stereo not given) | > 0.0392
24 | CCC/C(O)=C1\C(=O)CC(C)(C)CC1=NCc1ccccc1 | > 0.0449

Row | Compound | solubility kinetic [mg/mL]
25 | Cc1cc(=O)[nH]c2ccc(S(=O)(=O)Nc3ccc(O)cc3)cc12 | > 0.0496
26 | COc1ccccc1C/C(N)=N/OC(=O)c1cccs1 | 0.0428 (≈ 147 µM)
27 | CCc1ccc(NC(=O)CN2CC(c3ccccc3)CC2=O)cc1 (stereo not given) | > 0.0484
28 | N#CC1CN(Cc2ccccc2)CN(Cc2ccccc2)C1 | 0.0329 (≈ 113 µM)
29 | CC(C)NCC(=O)C12CC3CC(CC(C3)C1)C2 | 0.0287 (≈ 122 µM)
30 | O=C(COC(=O)/C=C/c1ccc(Cl)c(Cl)c1)NC1CC1 | 0.0044 (≈ 14 µM)
31 | CCCCCCCCNC1=CC(=O)CC(C)(C)C1 | 0.0125 (≈ 49.7 µM)
32 | CC(C)(C)SCCNS(=O)(=O)c1ccc(C#N)cc1 | 0.0181 (≈ 60.7 µM)
33 | COc1ccc(OCC(=O)OCC(=O)NC2CCCC2)cc1 | > 0.0461
34 | CCn1c(SCC(=O)NC(C)(C)C)nnc1-c1ccncc1 | > 0.0479
35 | CCOc1cc(/C=C2\C(=O)ON=C2c2ccccc2)ccc1OC | 0.0461 (≈ 143 µM)
36 | COc1cccc(NC(=O)CN(C)C(C)C(=O)N2CCCCC2)c1.O=C(O)C(=O)O (stereo not given) | > 0.0635
37 | COc1ccc(N2C(=O)CSC2c2ccc(F)c(F)c2)cc1 (stereo not given) | > 0.0482
38 | N#CC(C#N)=Cc1c[nH]c(=O)c(C#N)c1Nc1ccccc1 | > 0.0431
39 | Cc1ccc(S(=O)(=O)N2CCOCC2)cc1C(=O)OCC(=O)N1CCCC1=O | > 0.0616
40 | COc1ccc(C)cc1NC(=O)NC1CCCc2ccccc21 (stereo not given) | < 0.0003
41 | CCOC(=O)CC(=O)NC(CC(=O)OC)c1ccc(Br)cc1 (stereo not given) | 0.0457 (≈ 123 µM)
42 | CCOc1ccc(OCC(=O)Nc2ccc(S(N)(=O)=O)cc2)cc1 | 0.0071 (≈ 20.3 µM)
43 | COc1ccc(NC(=O)C(c2ccc(Cl)cc2)C(C)C)cn1 (stereo not given) | 0.0135 (≈ 42.3 µM)
44 | Cc1cc(C(=O)NCC2COc3ccccc3O2)c2ccccc2n1 (stereo not given) | 0.0093 (≈ 27.8 µM)
45 | Cc1cccc(OCC(=O)Nc2ccc(NC(=O)c3ccco3)cc2)c1 | 0.0006 (≈ 1.71 µM)
46 | COc1ccc(Cl)cc1CN1CCOCC1.Cl | > 0.0417
47 | N#Cc1nc(-c2ccco2)oc1NCc1ccccc1Cl | 0.0011 (≈ 3.67 µM)
48 | CCN(CC)CCNC(=O)c1cc(S(C)(=O)=O)ccc1OC.Cl | 0.0525

Row | Compound | solubility kinetic [mg/mL]
49 | Cn1cnc(S(=O)(=O)Nc2cc(-c3ccc(Cl)cc3)nn2C)c1 | > 0.0528
50 | COc1cc(OC)cc(C(=O)Nc2cccc3ccccc23)c1 | 0.0019 (≈ 6.18 µM)
51 | CC(=O)NCCC(=O)Nc1nc2c(ccc3ccccc32)s1 | 0.0017 (≈ 5.42 µM)
52 | CCOc1ccc(S(=O)(=O)/N=C(\N)c2ccccc2)cc1 | > 0.0457
53 | Cc1nn(C)cc1S(=O)(=O)Nc1ccc(C(F)(F)F)cc1 | > 0.0479
54 | Cc1sc(NC(=O)c2cccnc2)nc1-c1ccccc1 | 0.0011 (≈ 3.72 µM)
55 | COc1cc(OC)nc(/N=C/N(C)C)n1 | > 0.0315
56 | CNC(=S)NCCc1ccccc1 | 0.0256 (≈ 132 µM)
57 | CCOC(=O)c1c(C)[nH]c(C)c1C(=O)COC(=O)c1ccc(Cl)nc1 | > 0.0547
58 | O=c1ccc(-c2ccccc2)no1 | > 0.026
59 | C[n+]1cccc2cccc([O-])c21.O | 0.0252
60 | O=C(CN1CCCC1)OCCCC1CCCCC1 | 0.0179 (≈ 70.6 µM)
61 | CCOC(=O)CCNCc1ccc(F)cc1.Cl | > 0.0393
62 | CC(=O)Oc1ccc(C(=O)Nc2cc(C)on2)cc1 | 0.0381 (≈ 146 µM)
63 | CC(=O)c1sc(=S)n(Cc2ccccc2)c1C | 0.038 (≈ 144 µM)
64 | COc1ccc(C(C)=O)cc1COC(=O)c1cccnc1Cl | 0.0057 (≈ 17.8 µM)
65 | O=C(COC(=O)c1ccc(O)cc1)Nc1nccs1 | > 0.0417
66 | O=C(COc1ccccc1)Nc1ccc(C(=O)N2CCCC2)cc1 | 0.0341 (≈ 105 µM)
67 | CCOC(=O)CN1C(=O)CCSc2ccc(Cl)cc21 | > 0.045
68 | N#Cc1ccccc1NC(=O)COC(=O)c1cccs1 | 0.004 (≈ 14 µM)
69 | CC1CCCC(NCC(=O)Nc2ccc(C(N)=O)cc2)C1C (stereo not given) | > 0.0455
70 | Cn1c(SCC(=O)NC2CCCC2)nnc1-c1ccncc1 | > 0.0476
71 | Cc1ccc(-c2nc(N)s[n+]2-c2ccccc2)cc1.[Br-] | 0.021
72 | COC(=O)C(C)NC(=O)COc1ccc2ccccc2c1 (stereo not given) | > 0.0431

Row | Compound | solubility kinetic [mg/mL]
73 | Fc1ccccc1Nc1nc2ccccc2o1 | 0.0169 (≈ 74 µM)
74 | CC(Oc1ccc(C#N)cc1)C(=O)c1ccc(F)c(F)c1 (stereo not given) | 0.0326 (≈ 113 µM)
75 | CC(=O)Nc1ccccc1OCC(=O)NCCC1=CCCCC1 | > 0.0475
76 | CC(=O)N1CCc2ccccc2C1CC(=O)O (stereo not given) | 0.0327 (≈ 140 µM)
77 | O=C(COC(=O)C1=COCCO1)Nc1cc(C(F)(F)F)ccc1Cl | 0.0124 (≈ 33.9 µM)
78 | COc1ccc(C2(C)NC(=O)N(CC(=O)N(c3ccccc3)C3CCS(=O)(=O)C3)C2=O)cc1 (stereo not given) | 0.0528 (≈ 112 µM)
79 | CC(C)CCNC(=O)CCCCn1c(=O)[nH]c2ccsc2c1=O | 0.0471 (≈ 140 µM)
80 | Cc1ccc(-c2cnc3n2CCCCC3)cc1 | > 0.0339
81 | O=C(CCSCc1ccccc1)Nc1ccc2c(c1)OCCO2 | 0.0338 (≈ 103 µM)
82 | COC(=O)c1cccnc1NC(=S)NC(C)C | 0.0071 (≈ 28 µM)
83 | CCOc1ccc(C(=O)NCc2ccc3c(c2)OCO3)cc1 | 0.0113 (≈ 37.8 µM)
84 | NS(=O)(=O)c1cc2c(cc1Cl)NC=NS2(=O)=O | > 0.0444
85 | Cc1nnc(SCC(=O)Nc2ccc(S(N)(=O)=O)cc2)n(N)c1=O | > 0.0556
86 | Nc1nc(NCCOCCO)nc(NCC2CCCO2)c1[N+](=O)[O-] (stereo not given) | > 0.0514
87 | COc1ccc2nc(COC(=O)c3cccs3)c(C(C)=O)[n+]([O-])c2c1 | 0.0016 (≈ 4.46 µM)
88 | CC1CC(C)CN(c2ccc(NS(=O)(=O)c3ccccc3)cc2C(=O)O)C1 (stereo not given) | 0.0572 (≈ 147 µM)
89 | Cc1ccsc1C(=O)Nc1nccs1 | > 0.0336
90 | CC(=O)c1ccc(N2CCN(C(=S)NCc3ccco3)CC2)cc1 | 0.0454 (≈ 132 µM)
91 | Cc1ccc(C2SCC(=O)N2c2ccccc2)cc1 (stereo not given) | > 0.0404
92 | CS(=O)(=O)N1CCN(C(=O)c2ccc3c(c2)OCCO3)CC1 | > 0.049
93 | CCOC(=O)N1CCN(C(=O)c2ccc3[nH]c(C)c(C)c3c2)CC1 | > 0.0494
94 | Cc1cccc(NC(=S)N(CCN(C)C)C(C)c2cccnc2)c1 (stereo not given) | > 0.0514
95 | C=CCNC(=O)COC(=O)COc1ccc(Cl)cc1 | > 0.0426
96 | COc1ccc(N2CCN(C(CNC(=O)C(=O)NCCCO)c3ccco3)CC2)cc1 (stereo not given) | > 0.0646

Row | Compound | solubility kinetic [mg/mL]
97 | COc1ccc(CN(C)C(C)C(=O)Nc2ccc(S(=O)(=O)N3CCCCC3)cc2)c(OC)c1 (stereo not given) | 0.0061 (≈ 12.8 µM)
98 | CCOc1ccc2nc(NC(=O)CN3CCOCC3)sc2c1 | > 0.0482
99 | Cc1cccc(N2CC(O)(c3cccs3)[N+]3=C2CCCCC3)c1.[Br-] (stereo not given) | > 0.0611
100 | CCOC(=O)c1sc(NC(=O)c2ccoc2C)c(C(N)=O)c1C | 0.0073 (≈ 21.7 µM)
101 | Cc1cccc(N2CCN(C(=O)c3oc4ccc(Br)cc4c3C)CC2)c1C | 0.0043 (≈ 10.1 µM)
102 | COc1ccc(Cl)cc1C(=O)Nc1ccncc1 | > 0.0394
103 | COc1ccc(Oc2ccc(C(F)(F)F)cc2N)cc1 | 0.0053 (≈ 18.7 µM)
104 | O=C(c1ccc(S(=O)(=O)NCc2ccco2)cc1)N1CCN(c2ccccc2)CC1 | 0.0091 (≈ 21.4 µM)
105 | COc1ccccc1C/C(N)=N/OC(=O)COc1cccc(C)c1C | 0.0082 (≈ 23.9 µM)
106 | Cc1ccc(S(=O)(=O)NC(=O)Nc2ccc(C)cc2C)cc1 | 0.0351 (≈ 110 µM)
107 | COc1ccc(/C(N)=N/OC(=O)CC2CCCCC2)cc1 | 0.0028 (≈ 9.64 µM)
108 | COCCCn1c(SCC(=O)N2CCOCC2)nc2ccccc2c1=O | 0.0522 (≈ 138 µM)
109 | CNC(=O)c1ccc(Nc2nc(-c3ccccc3)nc3ccccc23)cc1 | 0.0149 (≈ 42 µM)
110 | COc1cccc(C(=O)NCC2(c3ccccc3)CCCC2)c1OC | 0.0153 (≈ 45.1 µM)
111 | O=C(O)c1ccccc1C(=O)N1CCN(c2ncccn2)CC1 | > 0.0468
112 | Nc1nc2c(F)c(F)c(F)cc2s1 | 0.0217 (≈ 106 µM)
113 | OC(CN1CC=C(c2ccccc2)CC1)c1ccccc1 (stereo not given) | 0.0408 (≈ 146 µM)
114 | O=S(=O)(NCc1cccs1)c1ccc(Br)cc1 | 0.0116 (≈ 34.9 µM)
115 | CNC(=S)Nc1cc2oc3ccccc3c2cc1OC | 0.0337 (≈ 118 µM)
116 | Cc1onc(C(=O)Nc2ccccc2C(F)(F)F)c1[N+](=O)[O-] | > 0.0473
117 | COc1ccc(C(=O)N2CCCC(Nc3ccc(C)c(C)c3)C2)cc1 (stereo not given) | 0.0405 (≈ 120 µM)
118 | COc1ccc(CN(C)CC(=O)Nc2ccccc2C(=O)NC2CC2)cc1F | 0.056 (≈ 145 µM)
119 | CCOc1ccccc1N1CCN(C(=O)CC(C)(C)C)CC1 | 0.0451 (≈ 148 µM)
120 | CSc1ccccc1NC(=S)NC1CCCCC1 | 0.03 (≈ 107 µM)
